The values that follow come from publication PMC6614837 (Nucleic Acids Research, 2019).

Entries after “also recorded” stand apart in the source; their conditions may differ.

One test addresses T1, P protein (Thermotoga maritima, UniProt Q9X1H4).
T1 construct: GST (cleaved yes); made in house; host or cells: E. coli BL21(DE3)pLysS
T1 sequence (Q9X1H4 1-117): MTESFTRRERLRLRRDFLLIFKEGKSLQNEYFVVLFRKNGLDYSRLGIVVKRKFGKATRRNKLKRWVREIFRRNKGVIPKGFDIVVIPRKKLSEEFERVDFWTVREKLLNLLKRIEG
Kind of test: Binding hindrance of the 5′ RNA leader to the P protein (BLI). Set-up: species or system T. maritima. As to conditions: compound 100 μM, 5′ RNA leader 5 μM. The method, then: A 5′ RNA leader sequence with 10-bases 5′-GGAAAAAGAU-3′ was purchased from IDT and used at a concentration of 5 μM. This sequence is the same used to obtain the crystal structure of the RNase P holoenzyme ([19]). The His-tagged P protein was immobilized on Ni-NTA biosensors at 0.05 mg/ml (3.4 μM). […] The steps performed on the assay and their periods were: P protein immobilization (400 s), wash (100 s), baseline […] (1000 rpm), compound association (800 s), compound dissociation (200 s) (500 rpm), baseline (100 s), 5′ leader association (200 s), 5′ leader dissociation (200 s) (1000 rpm). The assay was performed at 30°C. The compounds were used at 100 μM throughout. All assay steps were performed in 20 mM HEPES pH 7.4, 100 mM ammonium acetate, 10 mM MgCl2, 5% DMSO.
5 ′ RNA leader. (A) Experimental design of 5′ RNA leader binding hindrance experiments. Figures B-F are based on the analysis region depicted in panel A, where association and dissociation of the 5′ RNA leader to the P protein (TmP) is measured over time. P protein at 3.5 µM was immobilized on Ni-NTA biosensors for 300 s, while compounds were assayed at 100 µM and the […]
binding, in contrast with hematein (E) and purpurin (F).
(1 picture or pasted object on this page, not shown here)

In test [1] the test system is 3'-biotinylated minihelix (Mh; pMini3bpUG) (RNA, hairpin) GAUCUGAAUGCGGAAACGCGCCAC
In words: biolayer interferometry. As to conditions: Mg2+ 10 mM, NH4+ 100 mM (ammonium acetate); 20 mM HEPES pH 7.4, DMSO, 30°C; highest concentration tested 1 mM. (In general: BLI is a label-free optical method that tracks binding on a fibre tip over time.)

Test [2] has as its target T2, RNase P holoenzyme from Thermotoga maritima (Thermotoga maritima, UniProt Q9X1H4).
T2 construct: made in house
T2 sequence (Q9X1H4 1-117): T1 sequence (Q9X1H4 1-117)
In words: Real-time fluorescence-based (FRET) RNase P activity assay with minihelix (Mh) substrate. It counts as biochemical. As to conditions: for IC50: fluorescent Mh substrate 270 nM, holoenzyme 33 nM, 10% DMSO, 37°C, 400 mM AmOAc, 100 mM MgCl2. In short, it runs like this:
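Reconstituted holoenzyme (P RNA:P protein 1:1.1) at 33 nM with 270 nM minihelix labelled Alexa Fluor 488/BHQ quencher, in buffer H (pH 7.4, 400 mM AmOAc, 100 mM MgCl2), 10% DMSO, 37°C. Cleavage followed as fluorescence increase (ex 485, em 535 nm); initial velocities from linear slopes.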

What is called Ki is the dissociation constant of the complex between target and ligand, obtained from inhibition or displacement. Usually IC50 stands for the concentration needed to halve the response being measured.

With `O=C1c2ccccc2C(=O)c2c(O)c(O)cc(O)c21` [Purpurin, 1,2,4-trihydroxyanthraquinone], the “Hindrance of 5′ RNA leader binding to the P protein” value (“Hindrance … to the P protein” below) on P protein is “hinders the binding of the P protein to the 5′ RNA leader”; on P protein (listed as purpurin), “hinder the binding of the P protein; also recorded: interferes with the binding of the leader to the P protein”. Further, the binding result in test [1] is “no”. Besides, the Ki in test [2] (competitive inhibition model, varying fluorescent Mh substrate) worked out at 1.9 ± 0.4 µM. The IC50 in test [2] was 96.2 ± 21.7 µM.

Consider `O=C1C=C2CC3(O)COc4c(ccc(O)c4O)C3=C2C=C1O` (stereo not drawn) [Hematein, 3,4,6a,10-tetrahydroxy-6a,7-dihydroindeno[2,1-c]chromen-9(6H)-one], for which the “Hindrance … to the P protein” value on P protein is “hinder the binding of the P protein”; at P protein (listed as hematein), “displayed leader-binding hindrance”. Also, in test [1], the binding result is given as “no”. Besides, in test [2], the IC50 was determined as 4.5 ± 0.9 µM.

On to `O=C1C=CC(=O)c2c(O)cccc21` [Juglone, 5-hydroxy-1,4-naphthoquinone], for which the “Hindrance … to the P protein” value on P protein is recorded as “do not impede the leader binding”. The binding result in test [1] is listed as “no”. For the same compound, the IC50 in test [2] worked out at 12.8 ± 1.9 µM.
